Measurements taken from ChEMBL document CHEMBL3044672, “N9- and N7-(Chloromethyl Phenymethyl)Chloropurine Derivatives from , '-Dichloroxylenes: Synthesis and Anticancer Activity” (2005).

How the values were obtained:
Format in all cases: functional
CAKI-1 = assay: Cytotoxicity against Homo sapiens (human) Caki1 cells after 48 hr by sulforhodamine B assay; conditions: CAKI-1, 48 h
BT-549 = assay: Cytotoxicity against Homo sapiens (human) BT549 cells after 48 hr by sulforhodamine B assay; conditions: BT-549, 48 h
SF-539 = assay: Cytotoxicity against Homo sapiens (human) SF539 cells after 48 hr by sulforhodamine B assay; conditions: SF-539, 48 h
A498 = assay: Cytotoxicity against Homo sapiens (human) A498 cells after 48 hr by sulforhodamine B assay; conditions: A498, 48 h
NCI-H226 = assay: Cytotoxicity against Homo sapiens (human) NCI-H226 cells after 48 hr by sulforhodamine B assay; conditions: NCI-H226, 48 h
LOX IMVI = assay: Cytotoxicity against Homo sapiens (human) LOXIMVI cells after 48 hr by sulforhodamine B assay
786-0 = assay: Cytotoxicity against Homo sapiens (human) 786-0 cells after 48 hr by sulforhodamine B assay; conditions: 786-0, 48 h
NCI-H522 = assay: Cytotoxicity against Homo sapiens (human) NCI-H522 cells after 48 hr by sulforhodamine B assay; conditions: NCI-H522, 48 h
SNB-19 = assay: Cytotoxicity against Homo sapiens (human) SNB19 cells after 48 hr by sulforhodamine B assay; conditions: SNB-19, 48 h
SK-MEL-28 = assay: Cytotoxicity against Homo sapiens (human) SK-MEL-28 cells after 48 hr by sulforhodamine B assay; conditions: SK-MEL-28, 48 h
SF-268 = assay: Cytotoxicity against Homo sapiens (human) SF268 cells after 48 hr by sulforhodamine B assay; conditions: SF-268, 48 h
UACC-62 = assay: Cytotoxicity against Homo sapiens (human) UACC62 cells after 48 hr by sulforhodamine B assay; conditions: UACC-62, 48 h
UO-31 = assay: Cytotoxicity against Homo sapiens (human) UO31 cells after 48 hr by sulforhodamine B assay; conditions: UO-31, 48 h
HOP-92 = assay: Cytotoxicity against Homo sapiens (human) HOP92 cells after 48 hr by sulforhodamine B assay; conditions: HOP-92, 48 h
HCT-15 = assay: Cytotoxicity against Homo sapiens (human) HCT15 cells after 48 hr by sulforhodamine B assay; conditions: HCT-15, 48 h
U-251 = assay: Cytotoxicity against Homo sapiens (human) U251 cells after 48 hr by sulforhodamine B assay; conditions: U-251, 48 h
K562 = assay: Cytotoxicity against Homo sapiens (human) K562 cells after 48 hr by sulforhodamine B assay; conditions: K562, 48 h
SN12C = assay: Cytotoxicity against Homo sapiens (human) SN12C cells after 48 hr by sulforhodamine B assay
A549 = assay: Cytotoxicity against Homo sapiens (human) A549 cells after 48 hr by sulforhodamine B assay; conditions: A549, 48 h
CCRF-CEM = assay: Cytotoxicity against Homo sapiens (human) CCRF-CEM cells after 48 hr by sulforhodamine B assay
M14 = assay: Cytotoxicity against Homo sapiens (human) M14 cells after 48 hr by sulforhodamine B assay; conditions: M14, 48 h
MCF7 = assay: Cytotoxicity against Homo sapiens (human) MCF7 cells assessed as cell growth at 10^-4 M after 48 hr by Alamar blue assay; conditions: MCF7, 48 h, read-out: Activity
UACC-257 = assay: Cytotoxicity against Homo sapiens (human) UACC257 cells after 48 hr by sulforhodamine B assay; conditions: UACC-257, 48 h
OVCAR-8 = assay: Cytotoxicity against Homo sapiens (human) OVCAR8 cells after 48 hr by sulforhodamine B assay; conditions: OVCAR-8, 48 h
NCI-H460 = assay: Cytotoxicity against Homo sapiens (human) NCI-H460 cells assessed as cell growth at 10^-4 M after 48 hr by Alamar blue assay; conditions: NCI-H460, 48 h, read-out: Activity
[1] = Cytotoxicity against Homo sapiens (human) NCI-ADR-RES cells after 48 hr by sulforhodamine B assay
NCI-H23 = assay: Cytotoxicity against Homo sapiens (human) NCI-H23 cells after 48 hr by sulforhodamine B assay; conditions: NCI-H23, 48 h
ACHN = assay: Cytotoxicity against Homo sapiens (human) ACHN cells after 48 hr by sulforhodamine B assay
[2] = read-out: LC50 (the source's name)

SMILES: ClCc1ccccc1Cn1cnc2c(Cl)ncnc21
- GI50 (CAKI-1): 1.82 µM
- TGI (CAKI-1): 4.17 µM
- CC50 (CAKI-1; [2]): 9.33 µM
- GI50 (BT-549): 1.99 µM
- LC50 (50% lethal concentration) (BT-549): 19.9 µM
- TGI (BT-549): 5.49 µM
- GI50 (SF-539): 10.7 µM
- LC50 (concentration killing 50% of cells) (SF-539): 55 µM
- TGI (SF-539): 24 µM
- GI50 (A498): 17.4 µM
- LC50 (lethal concentration, 50% cell kill) (A498): 58.9 µM
- TGI (A498): 32.4 µM
- GI50 (NCI-H226): 4.57 µM
- TGI (NCI-H226): 12.6 µM
- CC50 (NCI-H226; [2]): 38.9 µM
- GI50 (LOX IMVI): 2.13 µM
- LC50 (LOX IMVI): > 100 µM
- TGI (LOX IMVI): 5.24 µM
- GI50 (786-0): 17.8 µM
- LC50 (786-0): 83.2 µM
- TGI (786-0): 38 µM
- GI50 (NCI-H522): 1.82 µM
- TGI (NCI-H522): 7.24 µM
- CC50 (NCI-H522; [2]): > 100 µM
- GI50 (SNB-19): 5.37 µM
- LC50 (SNB-19): > 100 µM
- TGI (SNB-19): > 100 µM
- GI50 (SK-MEL-28): 2.29 µM
- LC50 (concentration killing 50% of cells) (SK-MEL-28): 24.6 µM
- TGI (SK-MEL-28): 5.49 µM
- GI50 (SF-268): 3.23 µM
- TGI (SF-268): 10.9 µM
- CC50 (SF-268; [2]): > 100 µM
- GI50 (UACC-62): 3.31 µM
- LC50 (concentration causing 50% net cell kill) (UACC-62): 28.2 µM
- TGI (UACC-62): 6.6 µM
- GI50 (UO-31): 2.63 µM
- LC50 (concentration causing 50% net cell kill) (UO-31): 61.7 µM
- TGI (UO-31): 10.5 µM
- GI50 (HOP-92): 1.48 µM
- TGI (HOP-92): 4.26 µM
- CC50 (HOP-92; [2]): 21.4 µM
- GI50 (HCT-15): 2.09 µM
- TGI (HCT-15): 4.67 µM
- CC50 (HCT-15; [2]): 43.6 µM
- GI50 (U-251): 2.63 µM
- LC50 (concentration killing 50% of cells) (U-251): 61.7 µM
- TGI (U-251): 6.16 µM
- GI50 (K562): 1.2 µM
- TGI (K562): 5.12 µM
- CC50 (K562; [2]): > 100 µM
- GI50 (SN12C): 3.38 µM
- LC50 (50% lethal concentration) (SN12C): 95.5 µM
- TGI (SN12C): 8.71 µM
- GI50 (A549): 7.76 µM
- TGI (A549): 25.7 µM
- CC50 (A549; [2]): 75.9 µM
- GI50 (CCRF-CEM): 1.28 µM
- TGI (CCRF-CEM): 3.23 µM
- CC50 (CCRF-CEM; [2]): 8.12 µM
- GI50 (M14): 1.95 µM
- LC50 (M14): 7.24 µM
- TGI (M14): 3.71 µM
- growth at 100 µM (MCF7): 43%
- GI50 (UACC-257): 10.7 µM
- LC50 (concentration killing 50% of cells) (UACC-257): 66.1 µM
- TGI (UACC-257): 26.3 µM
- GI50 (OVCAR-8): 2.24 µM
- LC50 (concentration killing 50% of cells) (OVCAR-8): 20.4 µM
- TGI (OVCAR-8): 5.24 µM
- growth at 100 µM (NCI-H460): 0%
- GI50 [1]: 2.18 µM
- LC50 (concentration killing 50% of cells) [1]: 10.5 µM
- TGI [1]: 4.67 µM
- GI50 (NCI-H23): 2.04 µM
- TGI (NCI-H23): 4.36 µM
- CC50 (NCI-H23; [2]): 9.33 µM
- GI50 (ACHN): 2.7 µM
- TGI (ACHN): 6.16 µM
- CC50 (ACHN; [2]): 26.9 µM
